Columns and labels:
GST-Bcl-2 = GST-Bcl-2 (Homo sapiens, UniProt P10415); experiment: TR-FRET binding assay, GST-Bcl-2 with F-Bak peptide probe; details: for Ki: TR-FRET Binding Affinity
How it was run: (§1)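 Ki was derived with Wang's equation for competitive binding of two ligands. The read-out was time-resolved fluorescence after a 3 h room-temperature incubation, using a Tb-labelled antibody donor and the F-Bak peptide acceptor (excitation 340/35 nm). Test compounds entered as DMSO serial dilutions starting at 50 μM, which was the 2× concentration.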

GST-Bcl-XL = GST-Bcl-XL (Homo sapiens, UniProt Q07817); experiment: TR-FRET binding assay, GST-Bcl-XL with F-Bak peptide probe; details: TR-FRET Binding Affinity
How it was run: as §1

[1] = GST-Bcl-XL, F-Bak peptide probe
[2] = ratio of TR-FRET Ki values, Bcl-XL over Bcl-2
[3] = TR-FRET, Bcl-XL Ki divided by Bcl-2 Ki

Sequence of GST-Bcl-2 (P10415 whole entry): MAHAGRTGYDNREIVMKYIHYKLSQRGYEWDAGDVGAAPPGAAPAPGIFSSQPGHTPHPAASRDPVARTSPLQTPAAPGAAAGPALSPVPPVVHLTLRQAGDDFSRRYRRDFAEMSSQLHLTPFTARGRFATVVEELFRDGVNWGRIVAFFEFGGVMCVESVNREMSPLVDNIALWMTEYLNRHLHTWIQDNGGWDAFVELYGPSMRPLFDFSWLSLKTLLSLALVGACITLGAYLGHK
Sequence of GST-Bcl-XL (Q07817 whole entry): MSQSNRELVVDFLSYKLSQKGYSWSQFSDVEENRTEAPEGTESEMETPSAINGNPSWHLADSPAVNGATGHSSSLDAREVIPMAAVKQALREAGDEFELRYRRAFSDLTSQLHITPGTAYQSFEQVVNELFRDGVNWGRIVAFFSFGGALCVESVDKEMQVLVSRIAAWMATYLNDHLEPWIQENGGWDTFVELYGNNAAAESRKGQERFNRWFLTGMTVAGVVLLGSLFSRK

CC1(C)CCC(c2ccc(Cl)cc2)=C(CN2CCN(c3ccc(C(=O)NS(=O)(=O)c4ccc(NCCCN5CCOCC5)c([N+](=O)[O-])c4)c(Oc4ccc5[nH]ccc5c4)c3)CC2)C1 [Example 50, 4-(4-{[2-(4-chlorophenyl)-5,5-dimethylcyclohex-1-en-1-yl]methyl}piperazin-1-yl)-2-(1H-indol-5-yloxy)-N-({4-[(3-morpholin-4-ylpropyl)amino]-3-nitrophenyl}sulfonyl)benzamide]
Ki (GST-Bcl-2; GST-Bcl-2, F-Bak peptide probe): 0.471 nM
Ki (GST-Bcl-XL; [1]): 90.1 nM

CN(C)CC[C@H](Nc1ccc(S(=O)(=O)NC(=O)c2ccc(N3CCN(Cc4ccccc4-c4ccc(Cl)cc4)CC3)cc2Oc2ccccc2)cc1[N+](=O)[O-])c1cccs1 [Example 161, 4-{4-[(4′-chloro-1,1′-biphenyl-2-yl)methyl]piperazin-1-yl}-N-[(4-{[(1S)-3-(dimethylamino)-1-thien-2-ylpropyl]amino}-3-nitrophenyl)sulfonyl]-2-phenoxybenzamide]
Ki (GST-Bcl-2; GST-Bcl-2, F-Bak peptide probe): 1.71 nM
Ki (GST-Bcl-XL; [1]): > 660 nM

COCCOCCN1CC[C@@H](Nc2ccc(S(=O)(=O)NC(=O)c3ccc(N4CCN(CC5=C(c6ccc(Cl)cc6)CC(C)(C)CC5)CC4)cc3Oc3cccc4[nH]cnc34)cc2[N+](=O)[O-])C1 [Example 429, 2-(1H-benzimidazol-4-yloxy)-4-(4-{[2-(4-chlorophenyl)-4,4-dimethylcyclohex-1-en-1-yl]methyl}piperazin-1-yl)-N-{[4-({(3R)-1-[2-(2-methoxyethoxy)ethyl]pyrrolidin-3-yl}amino)-3-nitrophenyl]sulfonyl}benzamide]
Ki (GST-Bcl-2; GST-Bcl-2, F-Bak peptide probe): < 0.01 nM
Binding selectivity ratio (Bcl-XL Ki/Bcl-2 Ki) (GST-Bcl-2; [2]): 140.7
Ki (GST-Bcl-XL; [1]): 1.41 nM

CC1(C)CCC(CN2CCN(c3ccc(C(=O)NS(=O)(=O)c4cnc(OCC5(F)CCN(CC#N)CC5)c(Cl)c4)c(Oc4cccc5[nH]ncc45)c3)CC2)=C(c2ccc(Cl)cc2)C1 [Example 419, N-[(5-chloro-6-{[1-(cyanomethyl)-4-fluoropiperidin-4-yl]methoxy}pyridin-3-yl)sulfonyl]-4-(4-{[2-(4-chlorophenyl)-4,4-dimethylcyclohex-1-en-1-yl]methyl}piperazin-1-yl)-2-(1H-indazol-4-yloxy)benzamide]
Ki (GST-Bcl-2; GST-Bcl-2, F-Bak peptide probe): 0.197 nM
Binding selectivity ratio (Bcl-XL Ki/Bcl-2 Ki) (GST-Bcl-2; [2]): 1070.8
Ki (GST-Bcl-XL; [1]): 211 nM

CC1(C)CCC(CN2CCN(c3ccc(C(=O)NS(=O)(=O)c4cnc(OCC5CCC(C)(O)CC5)c(Cl)c4)c(Oc4cccc5[nH]ncc45)c3)CC2)=C(c2ccc(Cl)cc2)C1 (stereo not drawn) [Example 493, N-({5-chloro-6-[(cis-4-hydroxy-4-methylcyclohexyl)methoxy]pyridin-3-yl}sulfonyl)-4-(4-{[2-(4-chlorophenyl)-4,4-dimethylcyclohex-1-en-1-yl]methyl}piperazin-1-yl)-2-(1H-indazol-4-yloxy)benzamide]
Ki (GST-Bcl-2): < 0.01 nM
Binding selectivity ratio (Bcl-XL Ki/Bcl-2 Ki) (GST-Bcl-2; [3]): >4188.3
Ki (GST-Bcl-XL): 41.9 nM

O=C(NS(=O)(=O)c1ccc(NC2CCN(S(=O)(=O)c3ccccc3)CC2)c([N+](=O)[O-])c1)c1ccc(N2CCN(Cc3ccccc3-c3ccc(Cl)cc3)CC2)cc1Oc1ccccc1 [Example 157, 4-{4-[(4′-chloro-1,1′-biphenyl-2-yl)methyl]piperazin-1-yl}-N-[(3-nitro-4-{[1-(phenylsulfonyl)piperidin-4-yl]amino}phenyl)sulfonyl]-2-phenoxybenzamide]
Ki (GST-Bcl-2; GST-Bcl-2, F-Bak peptide probe): 4.45 nM
Ki (GST-Bcl-XL; [1]): > 660 nM

CC1(C)CCC(CN2CCN(c3ccc(C(=O)NS(=O)(=O)c4cnc(O[C@@H]5CCN(CC(F)F)C5)c(Cl)c4)c(Oc4cccc5[nH]ncc45)c3)CC2)=C(c2ccc(Cl)cc2)C1 [Example 422, N-[(5-chloro-6-{[(3R)-1-(2,2-difluoroethyl)pyrrolidin-3-yl]oxy}pyridin-3-yl)sulfonyl]-4-(4-{[2-(4-chlorophenyl)-4,4-dimethylcyclohex-1-en-1-yl]methyl}piperazin-1-yl)-2-(1H-indazol-4-yloxy)benzamide]
Ki (GST-Bcl-2; GST-Bcl-2, F-Bak peptide probe): 0.071 nM
Binding selectivity ratio (Bcl-XL Ki/Bcl-2 Ki) (GST-Bcl-2; [2]): 4073.4
Ki (GST-Bcl-XL; [1]): 290 nM

CC1(C)CCC(CN2CCN(c3ccc(C(=O)NS(=O)(=O)c4ccc(NCC5COCCO5)c([N+](=O)[O-])c4)c(Oc4cccc5[nH]cnc45)c3)CC2)=C(c2ccc(Cl)cc2)C1 (stereo not shown) [Example 450, 2-(1H-benzimidazol-4-yloxy)-4-(4-{[2-(4-chlorophenyl)-4,4-dimethylcyclohex-1-en-1-yl]methyl}piperazin-1-yl)-N-({4-[(1,4-dioxan-2-ylmethyl)amino]-3-nitrophenyl}sulfonyl)benzamide]
Ki (GST-Bcl-2): 0.299 nM
Binding selectivity ratio (Bcl-XL Ki/Bcl-2 Ki) (GST-Bcl-2; [3]): 107.3
Ki (GST-Bcl-XL): 32.1 nM

O=C(NS(=O)(=O)c1ccc(NCCn2nccn2)c([N+](=O)[O-])c1)c1ccc(N2CCN(Cc3ccccc3-c3ccc(Cl)cc3)CC2)cc1Oc1ccccc1 [Example 165, 4-{4-[(4′-chloro-1,1′-biphenyl-2-yl)methyl]piperazin-1-yl}-N-[(3-nitro-4-{[2-(2H-1,2,3-triazol-2-yl)ethyl]amino}phenyl)sulfonyl]-2-phenoxybenzamide]
Ki (GST-Bcl-2; GST-Bcl-2, F-Bak peptide probe): 0.823 nM
Ki (GST-Bcl-XL; [1]): 36.6 nM

CC1(C)CCC(CN2CCN(c3ccc(C(=O)NS(=O)(=O)c4ccc(NC5CCN(C6CC6)CC5)c([N+](=O)[O-])c4)c(Oc4cccc5[nH]ncc45)c3)CC2)=C(c2ccc(Cl)cc2)C1 [Example 436, 4-(4-{[2-(4-chlorophenyl)-4,4-dimethylcyclohex-1-en-1-yl]methyl}piperazin-1-yl)-N-({4-[(1-cyclopropylpiperidin-4-yl)amino]-3-nitrophenyl}sulfonyl)-2-(1H-indazol-4-yloxy)benzamide]
Ki (GST-Bcl-2): 0.011 nM
Ki (GST-Bcl-XL): 6.5 nM

O=C(NS(=O)(=O)c1ccccc1OCCN1CCCCC1)c1ccc(N2CCN(Cc3ccccc3-c3ccc(Cl)cc3)CC2)cc1Oc1ccccc1 [Example 32, 4-{4-[(4′-chloro-1,1′-biphenyl-2-yl)methyl]piperazin-1-yl}-2-phenoxy-N-{[2-(2-piperidin-1-ylethoxy)phenyl]sulfonyl}benzamide]
Ki (GST-Bcl-2; GST-Bcl-2, F-Bak peptide probe): 61.1 nM
Ki (GST-Bcl-XL; [1]): > 660 nM

CC1(C)CCC(CN2CCN(c3ccc(C(=O)NS(=O)(=O)c4cnc(OCCn5ccnc5)c(Cl)c4)c(Oc4cccc5[nH]ncc45)c3)CC2)=C(c2ccc(Cl)cc2)C1 [Example 485, N-({5-chloro-6-[2-(1H-imidazol-1-yl)ethoxy]pyridin-3-yl}sulfonyl)-4-(4-{[2-(4-chlorophenyl)-4,4-dimethylcyclohex-1-en-1-yl]methyl}piperazin-1-yl)-2-(1H-indazol-4-yloxy)benzamide]
Ki (GST-Bcl-2): 0.167 nM
Binding selectivity ratio (Bcl-XL Ki/Bcl-2 Ki) (GST-Bcl-2; [3]): 324.0
Ki (GST-Bcl-XL): 54.2 nM

CC1(C)CCC(CN2CCN(c3ccc(C(=O)NS(=O)(=O)c4cnc(OCC5CCC(F)(F)CC5)c(Cl)c4)c(Oc4cccc5[nH]ncc45)c3)CC2)=C(c2ccc(Cl)cc2)C1 [Example 482, N-({5-chloro-6-[(4,4-difluorocyclohexyl)methoxy]pyridin-3-yl}sulfonyl)-4-(4-{[2-(4-chlorophenyl)-4,4-dimethylcyclohex-1-en-1-yl]methyl}piperazin-1-yl)-2-(1H-indazol-4-yloxy)benzamide]
Ki (GST-Bcl-2): 0.064 nM
Binding selectivity ratio (Bcl-XL Ki/Bcl-2 Ki) (GST-Bcl-2; [3]): 5442.9
Ki (GST-Bcl-XL): 350 nM

O=C(NS(=O)(=O)c1ccc(NCC2CCOCC2)c([N+](=O)[O-])c1)c1ccc(N2CCN(Cc3ccccc3-c3ccc(Cl)cc3)CC2)cc1Oc1ccccc1 [Example 1, 4-{4-[(4′-chloro-1,1′-biphenyl-2-yl)methyl]piperazin-1-yl}-N-({3-nitro-4-[(tetrahydro-2H-pyran-4-ylmethyl)amino]phenyl}sulfonyl)-2-phenoxybenzamide]
Ki (GST-Bcl-2; GST-Bcl-2, F-Bak peptide probe): 6.77 nM
Ki (GST-Bcl-XL; [1]): 578 nM

CN1CCC(Nc2ccc(S(=O)(=O)NC(=O)c3ccc(N4CCN(CC5=C(c6ccc(Cl)cc6)CC(C)(C)CC5)CC4)cc3Oc3cccc4[nH]cnc34)cc2[N+](=O)[O-])CC1 [Example 418, 2-(1H-benzimidazol-4-yloxy)-4-(4-{[2-(4-chlorophenyl)-4,4-dimethylcyclohex-1-en-1-yl]methyl}piperazin-1-yl)-N-({4-[(1-methylpiperidin-4-yl)amino]-3-nitrophenyl}sulfonyl)benzamide]
Ki (GST-Bcl-2; GST-Bcl-2, F-Bak peptide probe): 0.004 nM
Binding selectivity ratio (Bcl-XL Ki/Bcl-2 Ki) (GST-Bcl-2; [2]): 404.7
Ki (GST-Bcl-XL; [1]): 1.57 nM

COC(=O)N1CCOC(CNc2ccc(S(=O)(=O)NC(=O)c3ccc(N4CCN(CC5=C(c6ccc(Cl)cc6)CC(C)(C)CC5)CC4)cc3Oc3cccc4[nH]ncc34)cc2[N+](=O)[O-])C1 (stereo not shown) [Example 505, methyl 2-{[(4-{[4-(4-{[2-(4-chlorophenyl)-4,4-dimethylcyclohex-1-en-1-yl]methyl}piperazin-1-yl)-2-(1H-indazol-4-yloxy)benzoyl]sulfamoyl}-2-nitrophenyl)amino]methyl}morpholine-4-carboxylate]
Ki (GST-Bcl-2): < 0.01 nM
Binding selectivity ratio (Bcl-XL Ki/Bcl-2 Ki) (GST-Bcl-2; [3]): >486.1
Ki (GST-Bcl-XL): 4.86 nM

CN1CCN(c2ccc(S(=O)(=O)NC(=O)c3ccc(N4CCN(CC5=C(c6ccc(Cl)cc6)CC(C)(C)CC5)CC4)cc3Oc3ccc4[nH]ccc4c3)cc2[N+](=O)[O-])CC1 [Example 107, 4-(4-{[2-(4-chlorophenyl)-4,4-dimethylcyclohex-1-en-1-yl]methyl}piperazin-1-yl)-2-(1H-indol-5-yloxy)-N-{[4-(4-methylpiperazin-1-yl)-3-nitrophenyl]sulfonyl}benzamide]
Ki (GST-Bcl-2; GST-Bcl-2, F-Bak peptide probe): 2.09 nM
Ki (GST-Bcl-XL; [1]): 130 nM

CCN(C)C(=O)N1CCOC(CNc2ccc(S(=O)(=O)NC(=O)c3ccc(N4CCN(CC5=C(c6ccc(Cl)cc6)CC(C)(C)CC5)CC4)cc3Oc3cccc4[nH]cnc34)cc2[N+](=O)[O-])C1 (stereo not shown) [Example 507, 2-{[(4-{[2-(1H-benzimidazol-4-yloxy)-4-(4-{[2-(4-chlorophenyl)-4,4-dimethylcyclohex-1-en-1-yl]methyl}piperazin-1-yl)benzoyl]sulfamoyl}-2-nitrophenyl)amino]methyl}-N-ethyl-N-methylmorpholine-4-carboxamide]
Ki (GST-Bcl-2): < 0.01 nM
Binding selectivity ratio (Bcl-XL Ki/Bcl-2 Ki) (GST-Bcl-2; [3]): >3334.7
Ki (GST-Bcl-XL): 33.3 nM
